According to patent US20240247048A1 (EMORY UNIVERSITY, priority 2021, published 2024):

How the values were obtained:
PDAC patient T cells = experiment: ex vivo 9-day expansion of PDAC patient peripheral blood T cells; type: cell-based, human
Description: (FIG. 17A) Representative western blot and (FIG. 17B) quantified expression levels of VPAC1 and VPAC2; and (FIG. 17C) PD-1 and CTLA-4 in lysates of healthy human T cells expanded with plate bound human anti-CD3 antibodies for 0, 3, 6, 12, 24, 48 and 72 hours. Lower molecular weight band of 25kD shown for VPAC2-specific expression as confirmed from our VPAC2 KO model. Percentage of (FIG. 17D) CD69 expression at 24 h post activation (FIG. 17E) phosphorylation of CREB (phospho-CREB) downstream of VPAC1/2 receptor at 6 h and in CD4+ and CD8+ T cells normalized to levels in control with no peptide. PDAC patient peripheral blood T cells were expanded for 9 days with plate bound human anti-CD3 antibodies+/−ANT008 and the (FIG. 17F) percentage of Tregs was quantified using the (FIG. 17G) gating strategy shown. […] Statistical differences in FIGS. 17D and 17E were calculated via repeated measures ANOVA followed by Dunnett's post-test where each sample in the treatment group was compared to the matched sample in the control group (scrambled treated). Statistical differences in FIGS. 17F, 17H, and 17I were calculated via paired student T-test. […]
(§1) Human T cell activation and expansion. […] Cells were counted using Trypan blue dye and phenotyped via flow cytometry on day 9. […]

[1] = system: phospho-CREB downstream of VPAC1/2 receptor; experiment: phosphorylation of CREB in activated human T cells; type: cell-based; settings: 6 h, 3 uM, compared with control scrambled peptide; FIG. 17e
Description: (FIG. 17A) Representative western blot and (FIG. 17B) quantified expression levels of VPAC1 and VPAC2; and (FIG. 17C) PD-1 and CTLA-4 in lysates of healthy human T cells expanded with plate bound human anti-CD3 antibodies for 0, 3, 6, 12, 24, 48 and 72 hours. Lower molecular weight band of 25kD shown for VPAC2-specific expression as confirmed from our VPAC2 KO model. Percentage of (FIG. 17D) CD69 expression at 24 h post activation (FIG. 17E) phosphorylation of CREB (phospho-CREB) downstream of VPAC1/2 receptor at 6 h and in CD4+ and CD8+ T cells normalized to levels in control with no peptide. PDAC patient peripheral blood T cells were expanded for 9 days with plate bound human anti-CD3 antibodies+/−ANT008 and the (FIG. 17F) percentage of Tregs was quantified using the (FIG. 17G) gating strategy shown. Percentage of PD1+, Tim-3+, Lag3+, PD1+Tim-3+, PD1+Lag3+ and PD1+Tim-3+Lag-3+(triple positive) in (FIG. 17H) CD4+ and (FIG. 17I) CD8+ subsets is shown. Statistical differences in FIGS. 17D and 17E were calculated via repeated measures ANOVA followed by Dunnett's post-test where each sample in the treatment group was compared to the matched sample in the control group (scrambled treated). Statistical differences in FIGS. 17F, 17H, and 17I were calculated via paired student T-test. Error bars show mean±SEM. […], **p<0.01 and ***p<0.001. […]

human T cells = experiment: activation of healthy-donor human T cells (anti-CD3), marker expression by flow cytometry; type: cell-based; settings: 24 h post activation, 3 uM, vs scrambled peptide; FIG. 17d
Description: Mean value from ‘Activated’ group shown with dotted line (---) for comparison. Responses from same healthy donors are shown with same color dots. Error bars are computed as the standard error of the mean (SEM) from 6 healthy donor samples.
This study adopted an ex-vivo system using human T cells isolated from healthy donors to screen for novel VIP-R antagonist peptides. Human T cells were cultured over 6 or 24 hours with activation in the presence or absence of peptides and were assessed for percent CD69 surface expression by flow cytometry to measure the state of T cell activation. The activity of the peptides was determined by percent increase in CD69 expression relative to no peptide control. […] We also observed that amongst the donors, most were classified as average responders, with measured value for CD69 expression within the error bars while two others had measured values outside the error bars, one sample reflecting a super-responder (purple dots) and one sample reflecting a slow-responder (green dots) (FIGS. 10A and 10B). […]
as §1

Sequence | T cells with an exhausted phenotype (co-expressing PD1 and Tim-3 or Lag-3) (PDAC patient T cells; CD4+ and CD8+ subsets, 9 days, FIG. 17h, 17i) | proportion of human Tregs (CD4+ CD25+ FoxP3+) (PDAC patient T cells; after 9 days of T cell expansion, FIG. 17f) | activation-induced phosphorylation of CREB [1] | CD69 expression in CD4 and CD8 human T cells (human T cells)
KPRRPYTDNYTRLRKQMAVKKYLNLILN [ANT008] | significantly decreased | significantly decreased |  | 
KPRRPYTSDYTRLRKQMAVKKYLNLILN [ANT308] |  |  | more potently inhibited | significantly increased
